According to patent US20060069132A1, “Azolecarboxamide herbicides” (priority 2004, published 2006):
Where two headings read alike, the source gives them in different places.

Tests used:
giant foxtail = assay: Test B pre-/postemergence herbicide test; format: in vivo, Setaria faberi; conditions: Setaria faberi, 336 h; for pest or weed control at 125 g/ha: 125 g ai/ha; for pest or weed control at 500 g/ha: 500 g ai/ha
How it was run: (§1)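 Formulation: non-phytotoxic solvent mix with surfactant. Timing: preemergence on seed and postemergence on 2–18 cm plants, applied concurrently. Readout after 13–15 d greenhouse: visual 0–100 control rating against controls.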

lambsquarters = assay: Test B pre-/postemergence herbicide test; format: in vivo, Chenopodium album; conditions: Chenopodium album, 336 h; for pest or weed control at 125 g/ha: 125 g ai/ha; for pest or weed control at 500 g/ha: 500 g ai/ha
How it was run: as §1

rice = assay: Test B flooded paddy test; format: in vivo, Oryza sativa; conditions: Oryza sativa, 336 h, 1000 g ai/ha, visual rating, scale 0 to 100 (0 no effect, 100 complete control), 13 to 15 days, read-out: Rice plant response rating
How it was run: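 Scale 0–100: zero equals no visible effect, 100 complete control, judged by eye relative to controls. Timing: 13 to 15 days in greenhouse post-treatment. Growth stage at spraying: two leaves (paddy) or one to four leaves, 2–18 cm (postemergence).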

barnyardgrass = assay: Test B flooded paddy test; format: in vivo, Echinochloa crus-galli; conditions: Echinochloa crus-galli, 336 h, 1000 g ai/ha, visual rating, scale 0 to 100 (0 no effect, 100 complete control), 13 to 15 days, read-out: Barnyardgrass plant response rating
How it was run: (§2)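 Treated at 2-leaf (paddy) or 1–4-leaf, 2–18 cm (postemergence); greenhouse 13–15 d; visual score vs control, 0 none to 100 complete control; dash = not tested.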

[1] = system: small flower umbrella sedge; assay: Test B flooded paddy test; format: in vivo, Cyperus difformis; conditions: Cyperus difformis, 336 h, 1000 g ai/ha, visual rating, scale 0 to 100 (0 no effect, 100 complete control), 13 to 15 days, read-out: Sedge, Umbrella plant response rating
How it was run: as §2

wheat = assay: Test B postemergence herbicide test; format: in vivo, Triticum aestivum; conditions: Triticum aestivum, post-emergence, 336 h, postemergence, visual rating, scale 0 (no effect) to 100 (complete control), read-out: Wheat plant response rating
How it was run: (§3)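 Plants grow to 1- to 4-leaf stage (2–18 cm) for postemergence spraying, or to 2-leaf stage for the paddy test. Formulated compound is applied. Greenhouse holding lasts 13–15 days. Response is scored visually relative to controls, 0 no effect to 100 complete control; a dash means no result.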

corn = assay: Test B pre-/postemergence herbicide test; format: in vivo, Zea mays; conditions: Zea mays; for plant injury at 125 g/ha: 125 g ai/ha
How it was run: as §1

wild oat = assay: Test B postemergence herbicide test; format: in vivo, Avena fatua; conditions: Avena fatua, post-emergence, 336 h, postemergence, visual rating, scale 0 (no effect) to 100 (complete control), read-out: Oat, Wild plant response rating
How it was run: as §3

ducksalad = assay: Test B flooded paddy test; format: in vivo, Heteranthera limosa; conditions: Heteranthera limosa, 336 h, 1000 g ai/ha, visual rating, scale 0 to 100 (0 no effect, 100 complete control), 13 to 15 days, read-out: Ducksalad plant response rating
How it was run: as §2

morningglory = assay: Test B pre-/postemergence herbicide test; format: in vivo, Ipomoea coccinea; conditions: Ipomoea, 336 h; for pest or weed control at 125 g/ha: 125 g ai/ha; for pest or weed control at 500 g/ha: 500 g ai/ha
How it was run: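 Herbicidal effect was judged by eye on a 0–100 scale after plants stood 13 to 15 days in the greenhouse following pre- or postemergence treatment with surfactant-containing formulations.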

blackgrass = assay: Test B postemergence herbicide test; format: in vivo, Alopecurus myosuroides; conditions: Alopecurus myosuroides, post-emergence, 336 h, postemergence, visual rating, scale 0 (no effect) to 100 (complete control), read-out: Blackgrass plant response rating
How it was run: as §2

large crabgrass = assay: Test B pre-/postemergence herbicide test; format: in vivo, Digitaria sanguinalis; conditions: Digitaria sanguinalis; for pest or weed control at 125 g/ha: 125 g ai/ha; for pest or weed control at 500 g/ha: 500 g ai/ha
How it was run: as §1

velvetleaf = assay: Test B pre-/postemergence herbicide test; format: in vivo, Abutilon theophrasti; conditions: Abutilon theophrasti, 336 h; for pest or weed control at 125 g/ha: 125 g ai/ha; for pest or weed control at 500 g/ha: 500 g ai/ha
How it was run: as §1

Surinam grass = assay: Test B pre-/postemergence herbicide test; format: in vivo, Urochloa decumbens; conditions: Urochloa decumbens; for pest or weed control at 125 g/ha: 125 g ai/ha; for pest or weed control at 500 g/ha: 500 g ai/ha
How it was run: as §1

pigweed = assay: Test B pre-/postemergence herbicide test; format: in vivo, Amaranthus retroflexus; conditions: Amaranthus retroflexus, 336 h; for pest or weed control at 125 g/ha: 125 g ai/ha; for pest or weed control at 500 g/ha: 500 g ai/ha
How it was run: as §1

[2] = post-emergence, postemergence, visual rating, scale 0 (no effect) to 100 (complete control), read-out: Foxtail, Giant plant response rating
[3] = post-emergence, postemergence, visual rating, scale 0 (no effect) to 100 (complete control), read-out: Lambsquarters plant response rating
[4] = post-emergence, postemergence, visual rating, scale 0 (no effect) to 100 (complete control), read-out: Morningglory plant response rating
[5] = post-emergence, postemergence, visual rating, scale 0 (no effect) to 100 (complete control), read-out: Crabgrass, Large plant response rating
[6] = post-emergence, postemergence, visual rating, scale 0 (no effect) to 100 (complete control), read-out: Velvetleaf plant response rating
[7] = post-emergence, postemergence, visual rating, scale 0 (no effect) to 100 (complete control), read-out: Surinam Grass plant response rating
[8] = post-emergence, postemergence, visual rating, scale 0 (no effect) to 100 (complete control), read-out: Pigweed plant response rating

CCNC(=O)c1cccc(NC(=O)c2nn(C(C)(C)C)cc2Br)c1 [Compound 221, 4-bromo-1-(1,1-dimethylethyl)-N-[3-[(ethylamino)carbonyl]phenyl]-1H-pyrazole-3-carboxamide]
0%: pest or weed control at 125 g/ha (giant foxtail; pre-emergence, 0 = no effect, 100 = complete control, read-out: Foxtail, Giant plant response rating (0 to 100 scale)) | pest or weed control at 125 g/ha (lambsquarters; [3]) | plant injury at 125 g/ha (wheat; 125 g ai/ha) | plant injury at 125 g/ha (corn; pre-emergence, 0 = no effect, 100 = complete control, read-out: Corn plant response rating (0 to 100 scale)) | Corn plant response rating (crop injury, 0 = no effect, 100 = complete kill) at 500 g/ha (corn; pre-emergence, 500 g ai/ha, visual rating, 0 = no effect, 100 = complete control) | pest or weed control at 125 g/ha (wild oat; 125 g ai/ha) | pest or weed control at 125 g/ha (morningglory; [4]) | pest or weed control at 500 g/ha (morningglory; [4]) | pest or weed control at 125 g/ha (morningglory; pre-emergence, 0 = no effect, 100 = complete control, read-out: Morningglory plant response rating (0 to 100 scale)) | pest or weed control at 500 g/ha (morningglory; pre-emergence, visual rating, 0 = no effect, 100 = complete control, read-out: Plant response rating, Morningglory) | pest or weed control at 125 g/ha (blackgrass; 125 g ai/ha) | pest or weed control at 500 g/ha (blackgrass; 500 g ai/ha) | pest or weed control at 125 g/ha (large crabgrass; [5]) | pest or weed control at 125 g/ha (velvetleaf; [6]) | pest or weed control at 500 g/ha (velvetleaf; [6]) | pest or weed control at 125 g/ha (velvetleaf; pre-emergence, 0 = no effect, 100 = complete control, read-out: Velvetleaf plant response rating (0 to 100 scale)) | pest or weed control at 125 g/ha (Surinam grass; [7]) | pest or weed control at 125 g/ha (Surinam grass; pre-emergence, 0 = no effect, 100 = complete control, read-out: Surinam Grass plant response rating (0 to 100 scale))
10%: pest or weed control at 125 g/ha (giant foxtail; [2]) | pest or weed control at 500 g/ha (giant foxtail; [2]) | plant injury at 500 g/ha (wheat; 500 g ai/ha) | plant injury at 125 g/ha (corn; post-emergence, postemergence, visual rating, scale 0 (no effect) to 100 (complete control), read-out: Corn plant response rating) | plant injury at 500 g/ha (corn; post-emergence, postemergence, 500 g ai/ha, visual rating, scale 0 (no effect) to 100 (complete control), read-out: Corn plant response rating) | pest or weed control at 500 g/ha (wild oat; 500 g ai/ha) | pest or weed control at 500 g/ha (large crabgrass; [5]) | pest or weed control at 500 g/ha (Surinam grass; [7]) | pest or weed control at 125 g/ha (pigweed; [8])
50%: pest or weed control at 1000 g/ha (ducksalad) | pest or weed control at 500 g/ha (velvetleaf; pre-emergence, visual rating, 0 = no effect, 100 = complete control, read-out: Plant response rating, Velvetleaf) | pest or weed control at 125 g/ha (pigweed; pre-emergence, 0 = no effect, 100 = complete control, read-out: Pigweed plant response rating (0 to 100 scale))
70%: pest or weed control at 500 g/ha (giant foxtail; pre-emergence, visual rating, 0 = no effect, 100 = complete control, read-out: Plant response rating, Foxtail, Giant)
40%: pest or weed control at 1000 g/ha (barnyardgrass)
80%: pest or weed control at 1000 g/ha [1] | pest or weed control at 125 g/ha (large crabgrass; pre-emergence, 0 = no effect, 100 = complete control, read-out: Crabgrass, Large plant response rating (0 to 100 scale))
30%: pest or weed control at 500 g/ha (Surinam grass; pre-emergence, visual rating, 0 = no effect, 100 = complete control, read-out: Plant response rating, Surinam Grass)
20%: pest or weed control at 500 g/ha (lambsquarters; [3]) | pest or weed control at 125 g/ha (lambsquarters; pre-emergence, 0 = no effect, 100 = complete control, read-out: Lambsquarters plant response rating (0 to 100 scale)) | plant injury at 1000 g/ha (rice) | pest or weed control at 500 g/ha (pigweed; [8])
100%: pest or weed control at 500 g/ha (lambsquarters; pre-emergence, visual rating, 0 = no effect, 100 = complete control, read-out: Plant response rating, Lambsquarters) | pest or weed control at 500 g/ha (large crabgrass; pre-emergence, visual rating, 0 = no effect, 100 = complete control, read-out: Plant response rating, Crabgrass, Large) | pest or weed control at 500 g/ha (pigweed; pre-emergence, visual rating, 0 = no effect, 100 = complete control, read-out: Plant response rating, Pigweed)
